This is an account of results in patent US9023860B2, “Pro-drugs for controlled release of biologically active compounds” (Signature Therapeutics, Inc., priority 2007, dated 2015).

Counter-ions that a name gives are not always drawn. Like-named read-outs stand apart in the source and are kept apart here.

The nature of this data set: In Vitro Cyclization Assay (disappearance of test compound in buffer, half-life of degradation). Format: physicochemical. The conditions noted are these: 20° C., approximately 2.2 mM, read-out: Ave (half-life of degradation) (converted). The procedure:
1. In Vitro Cyclization Assay
This assay measures the ability of a test compound of the present invention to cyclize in vitro. Also determined is the time required to effect such cyclization.
Test compounds are dissolved (approximately 2.2 mM) in 50 mM phosphate/citrate buffers at a variety of pHs, including pH 7.4 and pH 8.5. The disappearance of the test compounds is observed over time by incubating the solutions at 20° C. and periodically quantifying the concentration of the remaining compound. Since the rate of disappearance follows first order kinetics, the half-life of degradation is calculated from the slope of the regression of natural logarithm transformed data on time. For pH 10 half-life results, CPBG is used: The half-life assay is conducted in phosphate/citrate buffer to test compound stability at pH 6, pH 7.4 and pH 8.5, but citrate/phosphate/glycine buffer is used when compounds were tested at pH 10.

The mark [1] stands for this setting: nominal pH 6, 50 mM phosphate/citrate buffer.
Setting [2] is: nominal pH 7.4, 50 mM phosphate/citrate buffer.
Where [3] appears, read: nominal pH 8.5, 50 mM phosphate/citrate buffer.
[4] abbreviates: nominal pH 10, citrate/phosphate/glycine buffer.

What is called half-life is how long it takes for the measured level to halve. Regarding `CN(CCCN)C(=O)Oc1ccc2c3c1O[C@H]1C(=O)CC[C@H]4[C@@H](C2)N(C)CC[C@]314` [Comparison, Hydromorphone 3-(N-methyl-N-(3-amino)propyl)carbamate Hydrochloride, reference compound], the half-life at 2.2 mM runs as follows: under setting [1], 3190 h; under setting [2], 224 h; under setting [3], 74 h; under setting [4], 1.33 h.
Regarding `CN(CC(F)(F)CN)C(=O)Oc1ccc2c3c1OC1C(=O)CCC4C(C2)N(C)CCC314` (stereo not drawn) [Example 1, Hydromorphone 3-(N-methyl-N-(3-amino-2,2-difluoro)propyl)carbamate Hydrochloride], the half-life at 2.2 mM by setting is: under setting [1], 99.1 h; under setting [2], 9.43 h; under setting [3], 6.13 h; under setting [4], 8.04 h.
As for `CN(CC(F)CN)C(=O)Oc1ccc2c3c1O[C@H]1C(=O)CC[C@H]4[C@@H](C2)N(C)CC[C@]314` (stereo partly drawn) [Example 2, Hydromorphone 3-(N-methyl-N-(3-amino-2-fluoro)propyl)carbamate Hydrochloride], the half-life at 2.2 mM was 334 h under setting [1], 18.1 h under setting [2], 5.18 h under setting [3] and 1.68 h under setting [4].
